According to PMC6857626, “Potent bicyclic inhibitors of malarial cGMP-dependent protein kinase: approaches to combining improvements in cell potency, selectivity and structural novelty” (Bioorganic & Medicinal Chemistry Letters, 2019):
Where two headings read alike, the source gives them in different places.

Assays:
Plasmodium falciparum = assay: blood stage hypoxanthine incorporation (HXI) cell assay; type: cell-based; conditions: read-out: Pf HXI pEC50 (converted)
From the text: [21] Full details on biochemical assay and anti-malarial hypoxanthine incorporation (cell based) assay procedures can be found in reference 16.

[1] = mouse liver microsomal turnover; type: in vitro ADME; conditions: % remaining after 30 min incubation with mouse liver microsomes
Method: Microsomal turnover data was obtained using mouse liver microsomes (MLM) obtained from BD Biosciences. The compounds are pre-incubated at 37 °C for 5 minutes with the microsomes and the reaction was initiated by adding an equal volume of NADPH generating solution, also obtained from BD Biosciences. The final compound concentration in the incubation is 1 μM, and the microsomal protein concentration is 0.2 mg/mL. A sample is taken at t=0 and quenched with 2x volume of ice-cold methanol containing an internal standard reference compound (carbamazepine). The reaction is agitated at 37 °C for 30 minutes, when a further sample was taken and quenched in an identical fashion. The samples were centrifuged at 10000 rpm for 10 minutes and the supernatant taken for analysis in triplicate by LC-MS/MS (Agilent Technologies G6410 series, triple quadrupole with MM-ESI ion source) using optimised multiple reaction monitoring (MRM) scans and a standard column gradient on an Acquity UPLC BEH C8 1.7μm column, running acetonitrile and water with 0.05% acetic acid as the mobile phase. The % turnover is obtained by calculating the percentage difference of the peak areas, normalised to the internal standard, at t=0 and t=30. Verapamil is used as the standard compound for this assay.

Kinetic solubility = type: physicochemical
Method: The kinetic solubility was measured by diluting a small amount of 10 mM DMSO stock into PBS pH7.4 in a filtration plate at a target concentration of 200 μM giving a final solution composition of 98:2 PBS:DMSO. Each compound was run in triplicate on the same plate with two standard compounds, verapamil and ketoconazole, included per plate. The filtration plate was shaken at 500 rpm for 90 minutes and then filtered under vacuum. The filtrate was sampled and diluted with a DMSO:PBS mixture in a flat bottomed UV plate to give a solution with a composition of PBS:DMSO 80:20. A dilution series for each compound was then created in flat bottomed UV plates in PBS:DMSO 80:20 with concentrations 200 μM, 100 μM, 50 μM, 25 μM, 12.5 μM & […]. The UV absorbance for these solutions was read across 230-400 nm at 1 nm intervals using a TECAN Safire II plate reader and a suitable UV wavelength chosen around the UV maximum of each compound.

[2] = tested on: HepG2 human liver-derived cells; assay: in vitro cytotoxicity assay in HepG2 cells; type: cell-based; conditions: for EC50: Homo sapiens, read-out: HepG2 pEC50 (converted)
PKG1α(h) = target: T1, PKG1α(h) (Homo sapiens, UniProt Q13976); assay: Millipore Kinase Profiler assay, PKG1α(h); type: biochemical; conditions: for pIC50: PKG1α(h); for activity against human orthologue of PKG: up to a top assay concentration of 1 µM
T1 construct: purchased Millipore (Kinase Profiler service, tested externally)
T1 sequence (Q13976 1-671): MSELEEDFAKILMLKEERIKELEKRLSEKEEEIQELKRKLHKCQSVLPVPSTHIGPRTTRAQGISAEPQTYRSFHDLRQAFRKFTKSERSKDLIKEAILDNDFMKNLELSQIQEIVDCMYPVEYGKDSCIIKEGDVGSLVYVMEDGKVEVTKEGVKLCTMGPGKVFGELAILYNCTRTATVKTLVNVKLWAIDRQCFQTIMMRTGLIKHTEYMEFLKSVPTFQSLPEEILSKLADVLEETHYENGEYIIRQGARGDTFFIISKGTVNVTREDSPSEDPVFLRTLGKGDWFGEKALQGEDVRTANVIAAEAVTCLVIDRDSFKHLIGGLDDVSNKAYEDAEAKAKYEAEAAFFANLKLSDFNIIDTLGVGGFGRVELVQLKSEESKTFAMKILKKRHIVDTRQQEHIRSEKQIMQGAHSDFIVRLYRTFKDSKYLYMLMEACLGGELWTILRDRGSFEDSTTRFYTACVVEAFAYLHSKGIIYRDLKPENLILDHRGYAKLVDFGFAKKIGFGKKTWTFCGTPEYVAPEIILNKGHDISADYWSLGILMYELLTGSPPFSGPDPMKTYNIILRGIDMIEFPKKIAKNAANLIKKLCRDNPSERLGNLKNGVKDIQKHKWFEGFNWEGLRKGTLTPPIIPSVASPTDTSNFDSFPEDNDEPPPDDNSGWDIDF

PKG1β(h) = target: T2, PKG1β(h) (Homo sapiens, UniProt Q13976); assay: Millipore Kinase Profiler assay, PKG1β(h); type: biochemical; conditions: for pIC50: PKG1β(h); for activity against human orthologue of PKG: up to a top assay concentration of 1 µM
T2 construct: purchased Millipore (Kinase Profiler service, tested externally)
T2 sequence (Q13976 1-686 isoform Q13976-2): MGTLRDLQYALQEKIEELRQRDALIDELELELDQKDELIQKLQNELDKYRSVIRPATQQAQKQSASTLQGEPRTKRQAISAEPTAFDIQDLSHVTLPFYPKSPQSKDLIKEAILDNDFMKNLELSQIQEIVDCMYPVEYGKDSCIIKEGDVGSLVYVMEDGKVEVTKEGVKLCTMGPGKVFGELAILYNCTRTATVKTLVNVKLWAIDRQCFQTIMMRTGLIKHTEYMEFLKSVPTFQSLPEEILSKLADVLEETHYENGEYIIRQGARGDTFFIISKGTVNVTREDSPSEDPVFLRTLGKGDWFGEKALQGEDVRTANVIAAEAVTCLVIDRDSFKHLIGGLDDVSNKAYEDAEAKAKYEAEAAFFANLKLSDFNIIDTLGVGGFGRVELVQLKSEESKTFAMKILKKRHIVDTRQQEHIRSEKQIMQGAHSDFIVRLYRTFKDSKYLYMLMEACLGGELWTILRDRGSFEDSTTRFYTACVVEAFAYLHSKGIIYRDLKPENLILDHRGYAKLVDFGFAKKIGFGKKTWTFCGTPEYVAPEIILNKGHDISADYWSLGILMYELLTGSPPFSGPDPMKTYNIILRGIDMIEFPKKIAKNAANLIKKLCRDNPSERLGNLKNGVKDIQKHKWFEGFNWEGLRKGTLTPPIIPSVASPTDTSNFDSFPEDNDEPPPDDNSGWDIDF

PfPKG = PfPKG (Plasmodium falciparum, UniProt Q8I719); assay: biochemical; conditions: for IC50: biochemical assay, read-out: PfPKG pIC50 (converted); for LLE (pIC50 – mLogD): PfPKG pIC50 minus measured logD
[3] = Measured logD (shake flask); type: physicochemical; conditions: for mLogD: octanol/PBS
human kinase panel = assay: Kinase selectivity profiling against a human kinase panel; type: biochemical; conditions: single 1 µM concentration
Method: [29] Kinase selectivity profiling was carried out at the MRC Protein Phosphorylation Unit at the University of Dundee, U.K. at a single concentration of 1 µM for all three compounds.

[4] = blood stage hypoxanthine incorporation cell assay
[5] = HepG2, concentration at which half of cells remained viable at 48 h

Sequence of PfPKG (Q8I719 whole entry): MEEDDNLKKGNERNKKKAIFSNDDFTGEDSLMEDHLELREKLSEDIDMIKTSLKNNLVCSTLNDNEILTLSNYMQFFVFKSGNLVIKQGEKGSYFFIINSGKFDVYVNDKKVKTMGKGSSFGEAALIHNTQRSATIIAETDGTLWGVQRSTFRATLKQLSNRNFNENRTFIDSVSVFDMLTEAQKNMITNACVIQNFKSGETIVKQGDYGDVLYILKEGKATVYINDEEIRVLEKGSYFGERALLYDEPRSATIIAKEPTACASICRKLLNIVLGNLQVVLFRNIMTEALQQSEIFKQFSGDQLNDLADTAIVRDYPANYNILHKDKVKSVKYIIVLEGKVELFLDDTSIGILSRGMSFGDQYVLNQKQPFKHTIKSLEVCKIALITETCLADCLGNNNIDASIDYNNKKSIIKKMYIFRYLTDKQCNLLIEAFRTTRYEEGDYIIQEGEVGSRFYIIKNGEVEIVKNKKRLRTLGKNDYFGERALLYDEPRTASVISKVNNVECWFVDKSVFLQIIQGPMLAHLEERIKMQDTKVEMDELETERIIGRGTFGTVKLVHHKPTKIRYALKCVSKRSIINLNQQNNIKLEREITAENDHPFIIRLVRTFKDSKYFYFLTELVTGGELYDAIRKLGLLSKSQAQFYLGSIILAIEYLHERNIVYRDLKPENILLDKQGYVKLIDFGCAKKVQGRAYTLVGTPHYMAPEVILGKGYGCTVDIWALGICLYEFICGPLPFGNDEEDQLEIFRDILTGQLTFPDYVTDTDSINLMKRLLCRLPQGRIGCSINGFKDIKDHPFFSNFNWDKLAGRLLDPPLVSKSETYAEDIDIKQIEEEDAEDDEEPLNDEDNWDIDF

## CN1CCN(c2ccc(Nc3nccc(-c4c(-c5ccc(F)cc5)nc5ccccn45)n3)cc2)CC1 [Compound 1]
Plasmodium falciparum
  EC50: 115 nM
[1]
  MLM % rem: 65%

## CN(C)Cc1ccn2c(-c3ccnc(N)n3)c(-c3ccc(F)cc3)nc2c1 [Compound 2]
Plasmodium falciparum
  EC50: 363 nM
Kinetic solubility; kinetic solubility, PBS pH7.4
  Kin sol: 200 µM
[2]; HepG2, 48 h
  EC50: > 20000 nM
PKG1α(h)
  pIC50: < 6
  activity against human orthologue of PKG: no activity
PKG1β(h)
  pIC50: < 6
  activity against human orthologue of PKG: no activity

## Cc1nc2cc(CN(C)C)ccn2c1-c1ccnc(N)n1 [Compound 7]
PfPKG
  IC50: 57.5 nM

## CN(C)Cc1ccn2c(-c3ccnc(N)n3)c(C(F)(F)F)nc2c1 [Compound 8]
PfPKG
  IC50: 148 nM

## CN(C)Cc1ccn2c(-c3ccnc(N)n3)c(C3CC3)nc2c1 [Compound 9]
PfPKG
  LLE (pIC50 – mLogD): 5.8
  IC50: 35.5 nM
[3]
  mLogD: 1.7

## CC(C)Nc1nccc(-c2c(C3CC3)nc3cc(CN(C)C)ccn23)n1 [Compound 10]
PfPKG
  LLE (pIC50 – mLogD): 4.4
  IC50: 43.7 nM
[3]
  mLogD: 3.0

## CN(C)Cc1ccn2c(-c3ccnc(Nc4ccccn4)n3)c(C3CC3)nc2c1 [Compound 11]
PfPKG
  IC50: 8.71 nM
Plasmodium falciparum; [4]
  EC50: 1740 nM
[3]
  mLogD: 2.5

## CN(C)Cc1ccn2c(-c3ccnc(Nc4ccc(N5CCN(C)CC5)cc4)n3)c(C3CC3)nc2c1 [Compound 12]
PfPKG
  LLE (pIC50 – mLogD): 6.0
  IC50: 7.24 nM
Plasmodium falciparum; [4]
  EC50: 112 nM
[3]
  mLogD: 2.1

## CN(C)Cc1ccn2c(-c3ccnc(Nc4ccc(N5CCNCC5)cc4)n3)c(C3CC3)nc2c1 [Compound 13]
PfPKG
  LLE (pIC50 – mLogD): 6.8
  IC50: 4.47 nM
Plasmodium falciparum; [4]
  EC50: 200 nM
[3]
  mLogD: 1.5
[1]
  MLM % rem: 53%
Kinetic solubility; 90 min, pH 7.4
  Kin sol: 189 µM
[2]
  in vitro cytotoxicity (in words): non-cytotoxic
[2]; [5]
  EC50: > 10000 nM
Human kinase panel
  selectivity against human kinase panel (in words): decreased level of selectivity

## CN(C)Cc1cccn2c(-c3ccnc(N)n3)c(-c3ccc(F)cc3)nc12 [Compound 15]
PfPKG
  LLE (pIC50 – mLogD): 5.9
  IC50: 29.5 nM
[3]; octanol/phosphate buffered saline (PBS), read-out: mLogD
  logD at 12 h: 1.6

## CN(C)Cc1ccc2nc(-c3ccc(F)cc3)c(-c3ccnc(N)n3)n2c1 [Compound 16]
PfPKG
  LLE (pIC50 – mLogD): 5.0
  IC50: 51.3 nM
[3]
  mLogD: 2.3

## CN1CCC(Nc2ccn3c(-c4ccnc(N)n4)c(-c4ccc(F)cc4)nc3c2)C1 (stereo not shown) [Compound 20]
PfPKG
  LLE (pIC50 – mLogD): 6.0
  IC50: 8.51 nM
Plasmodium falciparum; [4]
  EC50: 851 nM
[3]
  mLogD: 2.1

## CN(C)CCCNc1ccc2nc(-c3ccc(F)cc3)c(-c3ccnc(N)n3)n2c1 [Compound 21]
PfPKG
  LLE (pIC50 – mLogD): 5.7
  IC50: 12.6 nM
[3]
  mLogD: 2.2

## CN1CCN(c2ccn3c(-c4ccnc(N)n4)c(-c4ccc(F)cc4)nc3c2)CC1 [Compound 22]
PfPKG
  LLE (pIC50 – mLogD): 5.4
  IC50: 3.31 nM
Plasmodium falciparum; [4]
  EC50: 263 nM
[3]
  mLogD: 3.1
[2]
  in vitro cytotoxicity (in words): did not

## CN1CCN(c2ccc3nc(-c4ccc(F)cc4)c(-c4ccnc(N)n4)n3c2)CC1 [Compound 23]
PfPKG
  LLE (pIC50 – mLogD): 5.8
  IC50: 2.63 nM
Plasmodium falciparum; [4]
  EC50: 871 nM
[3]
  mLogD: 2.8
[2]
  in vitro cytotoxicity (in words): significant activity

## CN1CCC(Nc2ccn3c(-c4ccnc(N)n4)c(-c4ccc(F)cc4)nc3c2)CC1 [Compound 24]
PfPKG
  LLE (pIC50 – mLogD): 6.2
  IC50: 3.63 nM
Plasmodium falciparum; [4]
  EC50: 347 nM
[3]
  mLogD: 2.2
[1]
  MLM % rem: 88%

## CN(C)CCOc1ccn2c(-c3ccnc(N)n3)c(-c3ccc(F)cc3)nc2c1 [Compound 25]
PfPKG
  LLE (pIC50 – mLogD): 5.9
  IC50: 7.41 nM
Plasmodium falciparum; [4]
  EC50: 813 nM
[3]
  mLogD: 2.2
[1]
  MLM % rem: 54%

## CN(C)CCNc1ccn2c(-c3ccnc(N)n3)c(-c3ccc(F)cc3)nc2c1 [Compound 26]
PfPKG
  LLE (pIC50 – mLogD): 6.5
  IC50: 2.57 nM
[3]
  mLogD: 2.1
[1]
  MLM % rem: 80%

## CNc1nccc(-c2c(-c3ccc(F)cc3)nc3cc(NCCN(C)C)ccn23)n1 [Compound 27]
PfPKG
  LLE (pIC50 – mLogD): 6.4
  IC50: 2.75 nM
Plasmodium falciparum; [4]
  EC50: 525 nM
[3]
  mLogD: 2.2
[1]
  MLM % rem: 93%
Kinetic solubility; 90 min, pH 7.4
  Kin sol: 207 µM
[2]
  in vitro cytotoxicity (in words): non-cytotoxic
[2]; [5]
  EC50: > 20000 nM
PKG1α(h)
  pIC50: < 6
  activity against human orthologue of PKG: no activity
PKG1β(h)
  pIC50: < 6
  activity against human orthologue of PKG: no activity
Human kinase panel
  selectivity against human kinase panel (in words): excellent selectivity profile

## CN(C)CCc1ccn2c(-c3ccnc(N)n3)c(-c3ccc(F)cc3)nc2c1 [Compound 29]
PfPKG
  LLE (pIC50 – mLogD): 5.8
  IC50: 20.4 nM
Plasmodium falciparum; [4]
  EC50: 1000 nM
[3]
  mLogD: 1.9
[1]
  MLM % rem: 65%
